The results in this text go back to PubChem BioAssay (NCI).

Some test systems named below: 786-0 renal; CCRF-CEM leukemia; HL-60(TB) leukemia; HT29 colon; KM12 colon; NCI-H23 lung; NCI-H522 lung; OVCAR-4 ovarian; SF-268 CNS; SK-MEL-2 melanoma; SK-MEL-28 melanoma; U251 CNS; LOX IMVI melanoma; MCF7 breast.
What all share (test): NCI tumour cell line growth inhibition, 48 h

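96-well plates; 48 h exposure; 5 concentrations. Endpoints by linear interpolation between flanking doses. Not reached: highest tested concentration assigned. TGI: concentration producing complete growth inhibition.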

In the case of `CC[N+](CC)(CC)Cc1cn(S(=O)(=O)c2ccccc2)c2ccccc12`, the TGI in the assay with 786-0 renal, with CCRF-CEM leukemia, with HL-60(TB) leukemia, in the assay with HT29 colon, with KM12 colon and in the assay with NCI-H23 lung was greater than 100 µM in each case. For the same molecule, the TGI in the assay on NCI-H522 lung, in the assay with OVCAR-4 ovarian, with SF-268 CNS, with SK-MEL-2 melanoma, with SK-MEL-28 melanoma and in the assay on U251 CNS was greater than 100 µM each time.

Take `C1=Cc2nc1c(-c1ccccc1)c1ccc([n-]1)c(-c1ccccc1)c1nc(c(-c3ccccc3)c3ccc([n-]3)c2-c2ccccc2)C=C1.[Zn+2]`: the TGI with 786-0 renal, with CCRF-CEM leukemia, in the assay on HL-60(TB) leukemia, in the assay with HT29 colon, in the assay on KM12 colon and in the assay on LOX IMVI melanoma was greater than 100 µM throughout. For the same molecule, the TGI in the assay on NCI-H23 lung, with NCI-H522 lung, with OVCAR-4 ovarian, in the assay with SF-268 CNS, in the assay on SK-MEL-2 melanoma and in the assay on SK-MEL-28 melanoma was greater than 100 µM each time. Also, in the assay with U251 CNS, the TGI is greater than 100 µM.

Take `CC(C)C1=CC(=O)C(C)(C2=NC(C)(C)CO2)c2ccccc21` (configuration not stated): the TGI in the assay with 786-0 renal, with CCRF-CEM leukemia, with HL-60(TB) leukemia, in the assay on HT29 colon, with KM12 colon and in the assay on NCI-H23 lung was greater than 100 µM in each case. For the same molecule, the TGI with NCI-H522 lung, in the assay with OVCAR-4 ovarian, in the assay with SF-268 CNS, in the assay with SK-MEL-2 melanoma, in the assay on SK-MEL-28 melanoma and with U251 CNS was greater than 100 µM each time.

As for `Clc1ccc2c(Cl)ncnc2c1I`, the TGI was greater than 100 µM in the assay on 786-0 renal; 44.6 µM with HL-60(TB) leukemia; greater than 100 µM with HT29 colon; greater than 100 µM with KM12 colon; greater than 100 µM in the assay on LOX IMVI melanoma; greater than 100 µM with NCI-H23 lung. The TGI is 56.6 µM in the assay on NCI-H522 lung; greater than 100 µM in the assay on OVCAR-4 ovarian; greater than 100 µM in the assay on SF-268 CNS; greater than 100 µM in the assay with SK-MEL-2 melanoma; greater than 100 µM with SK-MEL-28 melanoma; greater than 100 µM in the assay with U251 CNS.

With `Cc1nc2c(s/c(=N\N)n2-c2ccccc2)c(=O)[nH]1`, the TGI in the assay on 786-0 renal, with CCRF-CEM leukemia, with HL-60(TB) leukemia, in the assay on HT29 colon, with KM12 colon and in the assay with LOX IMVI melanoma was greater than 100 µM each time. Also, the TGI in the assay on NCI-H23 lung, with NCI-H522 lung, in the assay on OVCAR-4 ovarian, in the assay on SF-268 CNS, with SK-MEL-2 melanoma and with SK-MEL-28 melanoma was greater than 100 µM throughout. Moreover, the TGI in the assay with U251 CNS is greater than 100 µM.

For `O=C(CSc1nnc(-c2ccc(N=Cc3ccc(Cl)cc3)cc2)o1)Nc1ccccc1`, the TGI with 786-0 renal was 47 µM; in the assay on CCRF-CEM leukemia, greater than 100 µM; in the assay with HL-60(TB) leukemia it was greater than 100 µM; with HT29 colon, greater than 100 µM; in the assay with LOX IMVI melanoma it was 36.4 µM; in the assay with NCI-H23 lung it was greater than 100 µM. Besides, the TGI in the assay with NCI-H522 lung is 35.5 µM; in the assay with OVCAR-4 ovarian, greater than 100 µM; with SF-268 CNS, greater than 100 µM; in the assay on SK-MEL-2 melanoma it was greater than 100 µM; in the assay with SK-MEL-28 melanoma, greater than 100 µM; in the assay with U251 CNS it was greater than 100 µM.

Consider `c1ccc2c(NCCCCCCCCNc3cccc4ccccc34)cccc2c1`, for which the TGI in the assay with 786-0 renal was 57.1 µM; in the assay with CCRF-CEM leukemia, 42.5 µM; with HL-60(TB) leukemia it was 50.7 µM; in the assay with HT29 colon, greater than 100 µM; in the assay on KM12 colon, greater than 100 µM; in the assay with NCI-H23 lung, 65 µM. Moreover, the TGI in the assay on NCI-H522 lung was 36 µM; with OVCAR-4 ovarian it was 67.3 µM; in the assay on SF-268 CNS, greater than 100 µM; with SK-MEL-2 melanoma it was greater than 100 µM; with SK-MEL-28 melanoma it was 40.3 µM; with U251 CNS, greater than 100 µM.

On to `BrC12C3C4C5C(C(C43)C13OCCO3)C52` (configuration not stated), for which the TGI with 786-0 renal, with CCRF-CEM leukemia, with HL-60(TB) leukemia, in the assay on HT29 colon, in the assay with KM12 colon and with LOX IMVI melanoma was greater than 100 µM each time. In addition, the TGI in the assay on NCI-H23 lung, with NCI-H522 lung, in the assay on SF-268 CNS, in the assay on SK-MEL-2 melanoma, with SK-MEL-28 melanoma and in the assay on U251 CNS was greater than 100 µM in each case.

On to `CCCCC1(OC(=O)CCC(=O)O)CCC2(CCC(C)C(C/C=C(C)/C=C/C(O)C(C)/C=C/C(=O)O)O2)OC1CC/C(C)=C/C(=O)O` (configuration not stated), for which the TGI worked out at 14.3 µM in the assay with 786-0 renal; 27.4 µM in the assay on CCRF-CEM leukemia; 24.5 µM with HL-60(TB) leukemia; 43.6 µM with HT29 colon; 11.8 µM with KM12 colon; 3.27 µM in the assay with LOX IMVI melanoma. For the same molecule, the TGI in the assay on NCI-H23 lung is 3.49 µM; with NCI-H522 lung, 7.72 µM; in the assay with OVCAR-4 ovarian it was 7.78 µM; with SF-268 CNS, 7.22 µM; in the assay with SK-MEL-2 melanoma, 3.18 µM; in the assay with SK-MEL-28 melanoma it was 5.07 µM. Also, the TGI in the assay on U251 CNS came to 15.6 µM.

For the molecule `O=C1OC(c2ccccc2)(c2ccccc2)CC1CN1CCOCC1` (configuration not stated), the TGI turned out to be 30.4 µM in the assay with 786-0 renal; 9.44 µM in the assay with CCRF-CEM leukemia; 28.3 µM with HL-60(TB) leukemia; 15.1 µM in the assay on HT29 colon; 30.8 µM in the assay with KM12 colon; 28 µM with LOX IMVI melanoma. Besides, the TGI with NCI-H23 lung is 43.9 µM; with NCI-H522 lung it was 22.8 µM; with OVCAR-4 ovarian it was 40.9 µM; with SF-268 CNS, 84 µM; in the assay on SK-MEL-2 melanoma it was 36.5 µM; in the assay on SK-MEL-28 melanoma it was 32.9 µM. The molecule further registered a TGI with U251 CNS of 49.7 µM.

For `Cc1cccc(NC(=O)CSc2nnc(Cc3ccccc3)o2)c1`, the TGI in the assay with 786-0 renal, with CCRF-CEM leukemia, with HL-60(TB) leukemia, in the assay on HT29 colon, in the assay on KM12 colon and in the assay with LOX IMVI melanoma was greater than 100 µM in each case. For the same molecule, the TGI with NCI-H23 lung, in the assay with NCI-H522 lung, in the assay on OVCAR-4 ovarian, in the assay with SF-268 CNS, in the assay with SK-MEL-2 melanoma and in the assay with SK-MEL-28 melanoma was greater than 100 µM throughout. In the assay with U251 CNS, the TGI was greater than 100 µM.

For `Cc1nc(Nc2ccccc2)sc1C(=O)NNC(N)=O`, the TGI in the assay on 786-0 renal, with CCRF-CEM leukemia, in the assay on HL-60(TB) leukemia, in the assay on KM12 colon, with LOX IMVI melanoma and in the assay on NCI-H23 lung was greater than 100 µM in each case. The TGI in the assay on NCI-H522 lung, with OVCAR-4 ovarian, in the assay on SF-268 CNS, in the assay with SK-MEL-2 melanoma, in the assay on SK-MEL-28 melanoma and in the assay with U251 CNS was greater than 100 µM each time.

Take `O=C(/C=C(\O)C(=O)O)/C=C(\O)c1ccccc1Cl`: the TGI in the assay on 786-0 renal, in the assay on CCRF-CEM leukemia, with HL-60(TB) leukemia, in the assay on HT29 colon, in the assay with KM12 colon and in the assay on LOX IMVI melanoma was greater than 100 µM throughout. Also, the TGI in the assay with NCI-H23 lung, in the assay on NCI-H522 lung, with OVCAR-4 ovarian, in the assay on SF-268 CNS, in the assay on SK-MEL-2 melanoma and with SK-MEL-28 melanoma was greater than 100 µM each time. In the assay on U251 CNS, the TGI was greater than 100 µM.

Turning to `CC/C(=C/OC)P1(=O)OC(C)(C)CN1C(C)(C)C` (configuration not stated), the TGI in the assay on 786-0 renal, with HT29 colon, in the assay with KM12 colon, with LOX IMVI melanoma, in the assay with MCF7 breast and with NCI-H23 lung was greater than 100 µM each time. Also, the TGI with OVCAR-4 ovarian, with SF-268 CNS, with SK-MEL-2 melanoma and in the assay with U251 CNS was greater than 100 µM throughout.

Consider `CN(C)c1cccc(-c2cc(=O)c3cc4c(cc3[nH]2)OCO4)c1`, for which the TGI with 786-0 renal is 30.1 µM; with CCRF-CEM leukemia, greater than 100 µM; in the assay with HL-60(TB) leukemia, 2.23 µM; in the assay with HT29 colon, greater than 100 µM; in the assay on KM12 colon, 1.46 µM; with LOX IMVI melanoma, greater than 100 µM. Moreover, the TGI with NCI-H522 lung is 0.275 µM; in the assay on OVCAR-4 ovarian, 4.59 µM; with SF-268 CNS, 31.4 µM; with SK-MEL-2 melanoma, greater than 100 µM; with SK-MEL-28 melanoma, greater than 100 µM; with U251 CNS, 3.95 µM.

As to `COc1ccc2c(c1)CC1NC2Cc2ccccc21` (configuration not stated), the TGI in the assay on 786-0 renal, in the assay on CCRF-CEM leukemia, in the assay on HT29 colon, in the assay on KM12 colon, in the assay on NCI-H23 lung and with NCI-H522 lung was greater than 100 µM in each case. Moreover, the TGI in the assay on OVCAR-4 ovarian, in the assay with SF-268 CNS, in the assay on SK-MEL-2 melanoma, with SK-MEL-28 melanoma and with U251 CNS was greater than 100 µM throughout.

On to `CCOC(=O)C1=C(C)C2C3C(=O)NC(=O)C3C1(C)C1C(=O)NC(=O)C21` (configuration not stated), for which the TGI in the assay with 786-0 renal, in the assay with CCRF-CEM leukemia, in the assay on HL-60(TB) leukemia, with HT29 colon, in the assay on KM12 colon and in the assay with LOX IMVI melanoma was greater than 100 µM throughout. Moreover, the TGI in the assay with NCI-H23 lung, in the assay on OVCAR-4 ovarian, in the assay on SF-268 CNS, with SK-MEL-2 melanoma, in the assay on SK-MEL-28 melanoma and with U251 CNS was greater than 100 µM in each case.
